# Experimental data from patent US20090326013A1, “ISOMERS OF INOSITOL NIACINATE AND USES THEREOF” (priority 2007, published 2009).
# Experiments:
# [1] = system: Esterase; test: Hydrolysis in pH 7.4 phosphate buffer (SIF) with esterase; format: in vitro ADME; details: for degradation intermediates (penta-, tetra-, tri-, di-niacinates) observed: 16 hours
# Protocol: Esterase is an enzyme found in animal liver which catalyzes the hydrolysis of esters. The esterase reaches maximum activity in pH 8.0 borate buffer at 25° C. Simulated intestinal fluid without pancreatin (SIF, 1 L) was prepared according to USP standard procedure (USP29-NF24 S2). The pH of the SIF solution was then adjusted to 7.4. Esterase (6.0 mg) was then added to 200 mL of the pH 7.4 phosphate buffer. […] After sonication for about 1 minute these suspensions were carefully transferred to the hydrolysis medium. As each suspension was added to the pH 7.4 phosphate buffer, a milky white precipitated immediately appeared. The reactors were kept in a thermostatic water bath at 37±1° C. with a shaking rate at 42±1 rpm. At various reaction times ˜2 mL aliquots were taken from the hydrolysis solutions and filtered through 0.45 μm filters in order to remove any undissolved materials. The samples for HPLC analysis were prepared by addition of 20 μL 6N HCl to 1 mL filtrate.
# [2] = Dissolution and hydrolysis in simulated gastric fluid (SGF) pH 1.1, release of niacin; format: physicochemical; details: for time to complete dissolution in SGF: 25 mg in 25 mL SGF pH 1.1, 37°C, shaking; for release of niacin in SGF, allo-IHN compared with myo-IHN (FIG. 8): SGF pH 1.1, up to 150 hours
# Protocol: The hydrolysis was performed in a 37±1° C. thermostatic water bath with a shaking rate at 97±2 rpm. At various time intervals, 100 μl aliquots were taken from the reaction mixture and diluted with 1.5 mL 80/20 acetonitrile/formic acid which were used to quench the hydrolysis reaction.
# The pH of the SGF solution was 1.1 at 22° C. […] The reactor was placed in a thermostatic water bath at 37±1° C. with a shaking rate at 42±1 rpm. At various reaction times, 1 mL aliquots were taken from the reaction mixture and analyzed for niacin by HPLC.
# [3] = Dissolution and hydrolysis in SIF with pancreatin at pH 6.7; format: in vitro ADME; details: pH 6.7, up to 40 hours
# Protocol: Simulated intestinal fluid (SIF) with pancreatin was prepared according to the USP standard procedure (USP29-NF24 S2) with a pH of 6.7 at 24° C.
# [4] = system: alcoholics; details: three or more grams of niacin daily, five year study; cited from earlier work
# [5] = system: women suffering from painful menstrual cramps; details: 100 mg niacin twice daily, then every 2-3 hours during heavy cramps; cited from earlier work
# [6] = Dissolution and hydrolysis in pH 7.4 phosphate buffer (SIF without pancreatin); format: physicochemical; details: at about 25 hours
# Protocol: A pH 7.4 phosphate buffer solution was also prepared from a SIF test solution in the absence of pancreatin. […] The release of niacin and the appearance of the degradation intermediates were monitored up to about 74 hours.
# [7] = 250 mg 3 times daily combined with Mg-chlorophenoxyisobutyrate; cited from earlier work
# [8] = pH 7.4 phosphate buffer with esterase
smiles,measurement,setting,value
"O=C(O[C@H]1[C@H](OC(=O)c2cccnc2)[C@@H](OC(=O)c2cccnc2)[C@H](OC(=O)c2cccnc2)[C@@H](OC(=O)c2cccnc2)[C@H]1OC(=O)c1cccnc1)c1cccnc1 [myo-IHN, myo-inositol hexaniacinate, reference compound]",dissolution rate in the hydrolysis medium,[1]; [8],considerably slower than the hydrolysis rate
same,extent of hydrolysis (FIG. 9),[1]; [8],remained as a solid and did not hydrolyze
same,"degradation intermediates (penta-, tetra-, tri-, di-niacinates) observed",[1]; [8],absence of degradation intermediates
same,time to complete dissolution in SGF,[2],6 h
same,"release of niacin in SGF, allo-IHN compared with myo-IHN (FIG. 8)",[2],about the same
same,release of niacin in SIF with pancreatin,[3],very little release of niacin
"O=C(O[C@H]1[C@H](OC(=O)c2cccnc2)[C@@H](OC(=O)c2cccnc2)[C@H](OC(=O)c2cccnc2)[C@@H](OC(=O)c2cccnc2)[C@@H]1OC(=O)c1cccnc1)c1cccnc1 [scyllo-IHN, Scyllo-inositol hexaniacinate]",time to complete dissolution in SGF,[2],> 53 h
same,dissolution and hydrolysis after increasing acidity of the SGF medium,[2]; 2 ml concentrated HCl injected after 53 hours,can be dissolved and the hydrolysis reaction commences to produce niacin
"O=C(O)c1cccnc1 [niacin, pyridine-3-carboxylic acid]",alcoholics who benefit from supplementation (reduced recidivism and symptom reduction),[4],30-60%
same,participants experiencing significant relief of menstrual cramps,[5],Ninety
"O=C(O[C@H]1[C@H](OC(=O)c2cccnc2)[C@H](OC(=O)c2cccnc2)[C@@H](OC(=O)c2cccnc2)[C@@H](OC(=O)c2cccnc2)[C@H]1OC(=O)c1cccnc1)c1cccnc1 [allo-IHN, allo-inositol hexaniacinate]",concentration of niacin released,"[1]; 20 mg in 200 mL pH 7.4 phosphate buffer with esterase, 25 hours",52.8 µg/mL
same,dissolution rate in the hydrolysis medium,[1]; [8],relatively fast
same,"degradation intermediates (penta-, tetra-, tri-, di-niacinates) observed",[1]; [8],only the degradation intermediates of allo-IHN
same,"niacin released, % of theoretical release","[1]; pH 7.4 phosphate buffer with esterase, 25 hours",~58%
same,area response of the niacin peak compared with the myo-IHN sample,"[1]; pH 7.4 phosphate buffer with esterase, within one hour",significantly larger
same,effect of the presence of esterase on release of niacin,[1]; pH 7.4 phosphate buffer with vs without esterase,further enhances the release of niacin
same,maximum concentration of niacin released,[6]; 20 mg in 200 mL pH 7.4 phosphate buffer,30.34 µg/mL
same,"maximum niacin released, % of theoretical release",[6]; pH 7.4 phosphate buffer,~33%
same,niacin released in SGF,"[2]; 20 mg in 200 mL SGF pH 1.1, 37°C, 118 hours",38.5 µg/mL
same,onset of dissolution and hydrolysis in SGF,"[2]; 20 mg in 200 ml SGF pH 1.1, 37°C",began immediately after addition to the reaction medium
same,"niacin released in SGF, % of theoretical niacin content","[2]; SGF pH 1.1, 118 hours, theoretical 91 μg/mL",~42%
same,"release of niacin in SGF, allo-IHN compared with myo-IHN (FIG. 8)",[2],about the same
"O=C(O[C@H]1[C@H](OC(=O)c2cccnc2)[C@@H](OC(=O)c2cccnc2)[C@H](OC(=O)c2cccnc2)[C@@H](OC(=O)c2cccnc2)[C@H]1OC(=O)c1cccnc1)c1cccnc1 [IHN, inositol hexaniacinate]",influence on glucose tolerance,[7],no influence on glucose tolerance
